Measured values taken from PubChem BioAssay (NCI).
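Dose response: 5 concentrations. Exposure: 48 h. Format: 96-well plates. Endpoint: linear interpolation; highest concentration if not reached. GI50 = concentration required for 50% inhibition of growth. TGI denotes the concentration required for complete inhibition of growth.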

Columns and labels:
Experiment in all cases: NCI-60 cell line screen, 48 h
786-0 renal = system: 786-0 renal
A498 renal = system: A498 renal
A549 NSCLC = system: A549 NSCLC
ACHN renal = system: ACHN renal
BT-549 breast = system: BT-549 breast
CAKI-1 renal = system: CAKI-1 renal
CCRF-CEM leukemia = system: CCRF-CEM leukemia
COLO 205 colon = system: COLO 205 colon
DU-145 prostate = system: DU-145 prostate
HCC-2998 colon = system: HCC-2998 colon
HCT-116 colon = system: HCT-116 colon
HCT-15 colon = system: HCT-15 colon
HL-60(TB) leukemia = system: HL-60(TB) leukemia
HOP-62 NSCLC = system: HOP-62 NSCLC
HOP-92 NSCLC = system: HOP-92 NSCLC
HS 578T breast = system: HS 578T breast
HT29 colon = system: HT29 colon
IGROV1 ovarian = system: IGROV1 ovarian
K-562 leukemia = system: K-562 leukemia
KM12 colon = system: KM12 colon
LOX IMVI melanoma = system: LOX IMVI melanoma
M14 melanoma = system: M14 melanoma
MALME-3M melanoma = system: MALME-3M melanoma
MCF7 breast = system: MCF7 breast
MDA-MB-231 breast = system: MDA-MB-231 breast
MDA-MB-435 = system: MDA-MB-435
MOLT-4 leukemia = system: MOLT-4 leukemia
NCI-H226 lung = system: NCI-H226 lung
NCI-H23 lung = system: NCI-H23 lung
NCI-H460 lung = system: NCI-H460 lung
NCI-H522 lung = system: NCI-H522 lung
NCI/ADR-RES ovarian = system: NCI/ADR-RES ovarian
OVCAR-3 ovarian = system: OVCAR-3 ovarian
OVCAR-4 ovarian = system: OVCAR-4 ovarian
OVCAR-5 ovarian = system: OVCAR-5 ovarian
OVCAR-8 ovarian = system: OVCAR-8 ovarian
PC-3 prostate = system: PC-3 prostate
RPMI-8226 leukemia = system: RPMI-8226 leukemia
RXF 393 renal = system: RXF 393 renal
SF-268 CNS = system: SF-268 CNS
SF-295 CNS = system: SF-295 CNS
SF-539 CNS = system: SF-539 CNS
SK-MEL-2 melanoma = system: SK-MEL-2 melanoma
SK-MEL-28 melanoma = system: SK-MEL-28 melanoma
SK-MEL-5 melanoma = system: SK-MEL-5 melanoma
SK-OV-3 ovarian = system: SK-OV-3 ovarian
SN12C renal = system: SN12C renal
SNB-19 CNS = system: SNB-19 CNS
SNB-75 CNS = system: SNB-75 CNS
SR leukemia = system: SR leukemia
SW-620 colon = system: SW-620 colon
T-47D breast = system: T-47D breast
TK-10 renal = system: TK-10 renal
U251 CNS = system: U251 CNS
UACC-257 melanoma = system: UACC-257 melanoma
UACC-62 melanoma = system: UACC-62 melanoma
UO-31 renal = system: UO-31 renal

Work on `COc1ccc(-c2nn(-c3cccc(NC(=O)Nc4cc(C(F)(F)F)cc(C(F)(F)F)c4)c3)cc2-c2ccncc2)cc1Cl` yielded a GI50 (786-0 renal) of 0.976 µM, a TGI (786-0 renal) of 2.74 µM and a GI50 (A498 renal) of 0.507 µM. It also gave a TGI (A498 renal) of 3.17 µM, a GI50 (A549 NSCLC) of 1.07 µM and a TGI (A549 NSCLC) of 7.6 µM. The GI50 (ACHN renal) was 1.14 µM, the TGI (ACHN renal) was 50 µM and the GI50 (BT-549 breast) was 1.35 µM. The TGI (BT-549 breast) was 4.59 µM, the GI50 (CAKI-1 renal) was 1.07 µM and the TGI (CAKI-1 renal) was 9.44 µM. For the same compound, the GI50 (CCRF-CEM leukemia) was 0.962 µM, the TGI (CCRF-CEM leukemia) was 3.11 µM and the GI50 (COLO 205 colon) was 0.894 µM. The TGI (COLO 205 colon) was 1.74 µM, the GI50 (DU-145 prostate) was 1.96 µM and the TGI (DU-145 prostate) was 9.76 µM. For the same compound, the GI50 (HCC-2998 colon) was 2.02 µM, the TGI (HCC-2998 colon) was 9.18 µM and the GI50 (HCT-116 colon) was 0.649 µM. The TGI (HCT-116 colon) was 2.17 µM, the GI50 (HCT-15 colon) was 0.962 µM and the TGI (HCT-15 colon) was 4.08 µM. It also gave a GI50 (HL-60(TB) leukemia) of 1.24 µM, a TGI (HL-60(TB) leukemia) of 3.63 µM and a GI50 (HOP-62 NSCLC) of 1.09 µM. For the same compound, the TGI (HOP-62 NSCLC) was 3.29 µM, the GI50 (HOP-92 NSCLC) was 0.17 µM and the TGI (HOP-92 NSCLC) was 1.33 µM. For the same compound, the GI50 (HS 578T breast) was 1.17 µM, the TGI (HS 578T breast) was 5.52 µM and the GI50 (HT29 colon) was 1.29 µM. It also gave a TGI (HT29 colon) of 5.75 µM, a GI50 (IGROV1 ovarian) of 2.08 µM and a TGI (IGROV1 ovarian) of 31.6 µM. For the same compound, the GI50 (K-562 leukemia) was 1.05 µM, the TGI (K-562 leukemia) was 10 µM and the GI50 (KM12 colon) was 1.09 µM. The TGI (KM12 colon) was 4.17 µM, the GI50 (LOX IMVI melanoma) was 1.51 µM and the TGI (LOX IMVI melanoma) was 5.64 µM. It also gave a GI50 (M14 melanoma) of 0.913 µM, a TGI (M14 melanoma) of 2.51 µM and a GI50 (MALME-3M melanoma) of 1.23 µM. It also gave a TGI (MALME-3M melanoma) of 4.2 µM, a GI50 (MCF7 breast) of 1.01 µM and a TGI (MCF7 breast) of 5.98 µM. The GI50 (MDA-MB-231 breast) was 0.85 µM, the TGI (MDA-MB-231 breast) was 2.12 µM and the GI50 (MDA-MB-435) was 0.959 µM. For the same compound, the TGI (MDA-MB-435) was 3.12 µM, the GI50 (MOLT-4 leukemia) was 1.2 µM and the TGI (MOLT-4 leukemia) was 4 µM. It also gave a GI50 (NCI-H226 lung) of 1.33 µM, a TGI (NCI-H226 lung) of 6.35 µM and a GI50 (NCI-H23 lung) of 1.41 µM. The TGI (NCI-H23 lung) was 8.22 µM, the GI50 (NCI-H460 lung) was 0.872 µM and the TGI (NCI-H460 lung) was 4.9 µM. The GI50 (NCI-H522 lung) was 0.837 µM, the TGI (NCI-H522 lung) was 2.64 µM and the GI50 (NCI/ADR-RES ovarian) was 1.25 µM. The TGI (NCI/ADR-RES ovarian) was 13.3 µM, the GI50 (OVCAR-3 ovarian) was 0.68 µM and the TGI (OVCAR-3 ovarian) was 4.56 µM. It also gave a GI50 (OVCAR-4 ovarian) of 1.1 µM, a TGI (OVCAR-4 ovarian) of 4.86 µM and a GI50 (OVCAR-5 ovarian) of 1.4 µM. It also gave a TGI (OVCAR-5 ovarian) of 9.17 µM, a GI50 (OVCAR-8 ovarian) of 1.13 µM and a TGI (OVCAR-8 ovarian) of 22.5 µM. For the same compound, the GI50 (PC-3 prostate) was 0.448 µM, the TGI (PC-3 prostate) was 2.92 µM and the GI50 (RPMI-8226 leukemia) was 0.54 µM. The TGI (RPMI-8226 leukemia) was 2.68 µM, the GI50 (RXF 393 renal) was 0.849 µM and the TGI (RXF 393 renal) was 2.4 µM. For the same compound, the GI50 (SF-268 CNS) was 1.59 µM, the TGI (SF-268 CNS) was 8.68 µM and the GI50 (SF-295 CNS) was 1.01 µM. For the same compound, the TGI (SF-295 CNS) was 3.36 µM, the GI50 (SF-539 CNS) was 0.88 µM and the TGI (SF-539 CNS) was 2.25 µM. For the same compound, the GI50 (SK-MEL-2 melanoma) was 1.23 µM, the TGI (SK-MEL-2 melanoma) was 2.8 µM and the GI50 (SK-MEL-28 melanoma) was 1.14 µM. For the same compound, the TGI (SK-MEL-28 melanoma) was 4.18 µM, the GI50 (SK-MEL-5 melanoma) was 0.827 µM and the TGI (SK-MEL-5 melanoma) was 1.7 µM. The GI50 (SK-OV-3 ovarian) was 1.52 µM, the TGI (SK-OV-3 ovarian) was 7.38 µM and the GI50 (SN12C renal) was 1.27 µM. For the same compound, the TGI (SN12C renal) was 7.95 µM, the GI50 (SNB-19 CNS) was 1.62 µM and the TGI (SNB-19 CNS) was 18.2 µM. For the same compound, the GI50 (SNB-75 CNS) was 0.813 µM, the TGI (SNB-75 CNS) was 4.18 µM and the GI50 (SR leukemia) was 1.02 µM. It also gave a TGI (SR leukemia) of 3.13 µM, a GI50 (SW-620 colon) of 1.35 µM and a TGI (SW-620 colon) of 6.5 µM. For the same compound, the GI50 (T-47D breast) was 1.07 µM, the TGI (T-47D breast) was 7.17 µM and the GI50 (TK-10 renal) was 1.67 µM. It also gave a TGI (TK-10 renal) of 10.9 µM, a GI50 (U251 CNS) of 0.731 µM and a TGI (U251 CNS) of 1.73 µM. It also gave a GI50 (UACC-257 melanoma) of 1.07 µM, a TGI (UACC-257 melanoma) of 3.74 µM and a GI50 (UACC-62 melanoma) of 0.948 µM. The TGI (UACC-62 melanoma) was 3.11 µM, the GI50 (UO-31 renal) was 0.799 µM and the TGI (UO-31 renal) was 7.32 µM.
